{"source": "ChEMBL document CHEMBL6114982", "about": "“Structural optimization and characterization of highly potent and selective STAT3 inhibitors for the treatment of triple negative breast cancer” (Eur J Med Chem, 2025)", "key": {"[1]": {"target": "Tyrosine-protein kinase JAK2 (Homo sapiens) (UniProt O60674)", "sequence (O60674 whole entry)": "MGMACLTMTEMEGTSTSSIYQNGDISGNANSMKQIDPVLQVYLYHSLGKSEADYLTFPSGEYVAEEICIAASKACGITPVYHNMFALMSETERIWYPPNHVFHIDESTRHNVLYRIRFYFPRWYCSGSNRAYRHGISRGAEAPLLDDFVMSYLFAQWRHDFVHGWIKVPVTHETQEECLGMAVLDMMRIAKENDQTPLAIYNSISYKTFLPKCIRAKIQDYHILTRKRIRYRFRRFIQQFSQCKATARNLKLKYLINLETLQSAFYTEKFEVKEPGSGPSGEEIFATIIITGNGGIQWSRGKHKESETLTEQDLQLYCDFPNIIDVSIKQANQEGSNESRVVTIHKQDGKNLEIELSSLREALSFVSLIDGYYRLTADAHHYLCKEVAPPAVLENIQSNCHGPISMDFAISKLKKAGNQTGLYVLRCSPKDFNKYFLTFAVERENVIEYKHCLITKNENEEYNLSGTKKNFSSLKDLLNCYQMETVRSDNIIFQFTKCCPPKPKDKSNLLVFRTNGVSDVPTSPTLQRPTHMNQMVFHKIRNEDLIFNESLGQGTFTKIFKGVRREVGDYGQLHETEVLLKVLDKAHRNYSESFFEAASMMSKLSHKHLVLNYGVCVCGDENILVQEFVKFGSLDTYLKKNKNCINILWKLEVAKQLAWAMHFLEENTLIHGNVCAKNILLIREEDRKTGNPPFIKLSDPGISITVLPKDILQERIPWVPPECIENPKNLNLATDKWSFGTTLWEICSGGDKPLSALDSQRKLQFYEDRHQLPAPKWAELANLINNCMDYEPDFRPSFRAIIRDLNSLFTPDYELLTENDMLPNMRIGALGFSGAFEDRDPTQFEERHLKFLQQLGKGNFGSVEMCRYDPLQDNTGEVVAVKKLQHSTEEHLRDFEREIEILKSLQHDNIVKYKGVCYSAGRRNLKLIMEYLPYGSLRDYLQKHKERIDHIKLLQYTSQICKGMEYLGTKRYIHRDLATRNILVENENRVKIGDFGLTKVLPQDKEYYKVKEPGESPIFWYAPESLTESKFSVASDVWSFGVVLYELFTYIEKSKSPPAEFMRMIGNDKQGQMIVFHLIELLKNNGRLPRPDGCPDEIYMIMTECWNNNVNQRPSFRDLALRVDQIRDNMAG", "experiment": "Inhibition of JAK2 (unknown origin) at upto 10 uM"}, "[2]": {"experiment": "Toxicity in female BALB/c nude mouse assessed as drug tolerance at 10 to 20 mg/kg, iv measured after 30 days", "format": "organism-based", "details": "in vivo, 720 h, dose 10-20 mg/kg, time 30 day"}, "[3]": {"system": "MDA-MB-231", "experiment": "Induction of apoptosis in human MDA-MB-231 cells incubated for 48 hrs by Annexin V and PI staining based flow cytometry analysis", "format": "functional, cell-based", "details": "dose 0.05-0.5 µM"}, "[4]": {"target": "T1, Signal transducer and activator of transcription 3 (Homo sapiens, UniProt P40763)", "T1 sequence (P40763 whole entry)": "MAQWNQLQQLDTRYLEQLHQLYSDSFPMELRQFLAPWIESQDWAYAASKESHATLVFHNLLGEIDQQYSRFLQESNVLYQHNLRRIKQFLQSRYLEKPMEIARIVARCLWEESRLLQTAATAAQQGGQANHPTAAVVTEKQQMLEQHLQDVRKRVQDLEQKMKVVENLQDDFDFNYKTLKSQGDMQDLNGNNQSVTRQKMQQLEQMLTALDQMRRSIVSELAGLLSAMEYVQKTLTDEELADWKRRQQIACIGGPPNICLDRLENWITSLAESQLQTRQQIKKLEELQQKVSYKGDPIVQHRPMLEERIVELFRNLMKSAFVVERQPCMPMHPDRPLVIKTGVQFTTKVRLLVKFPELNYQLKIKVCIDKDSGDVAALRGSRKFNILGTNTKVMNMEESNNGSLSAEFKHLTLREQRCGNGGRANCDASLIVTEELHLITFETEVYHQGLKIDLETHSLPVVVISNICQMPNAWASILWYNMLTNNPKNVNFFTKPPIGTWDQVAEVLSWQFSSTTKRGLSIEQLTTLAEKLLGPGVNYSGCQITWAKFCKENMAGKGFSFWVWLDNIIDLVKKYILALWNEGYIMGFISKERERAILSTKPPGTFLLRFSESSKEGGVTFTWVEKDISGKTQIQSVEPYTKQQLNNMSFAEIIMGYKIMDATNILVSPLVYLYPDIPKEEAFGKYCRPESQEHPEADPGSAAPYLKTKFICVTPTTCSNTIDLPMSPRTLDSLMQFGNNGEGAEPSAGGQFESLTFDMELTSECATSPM", "experiment": "Inhibition of STAT3 nuclear translocation in human BT-549 cells assessed as decrease in p-STAT3 at Tyr705 residue at 0.05 to 0.5 uM preincubated for 48 hrs followed by IL-6 addition and measured after 2 hrs by Immunofluorescence analysis", "format": "cell-based", "details": "dose 0.05-0.5 µM, time 50.0 hrs"}, "[5]": {"system": "MDA-MB-231", "experiment": "Downregulation of cyclin D1 level in human MDA-MB-231 cells measured after 48 hrs by Western blot analysis", "format": "functional, cell-based", "details": "dose 0.05-0.5 µM"}, "[6]": {"target": "T1, Signal transducer and activator of transcription 3", "experiment": "Inhibition of STAT3 nuclear translocation in human MDA-MB-231 cells assessed as decrease in p-STAT3 at Tyr705 residue at 0.05 to 0.5 uM preincubated for 48 hrs followed by IL-6 addition and measured after 2 hrs by Immunofluorescence analysis", "format": "cell-based", "details": "dose 0.05-0.5 µM, time 50.0 hrs"}, "[7]": {"system": "BT-549", "experiment": "Downregulation of cyclin D1 level in human BT-549 cells measured after 48 hrs by Western blot analysis", "format": "functional, cell-based", "details": "dose 0.05-0.5 µM"}, "[8]": {"experiment": "Toxicity in female BALB/c nude mouse assessed as effect on heart at 10 to 20 mg/kg, iv measured after 30 days by H and E staining based analysis", "format": "organism-based", "details": "in vivo, 720 h, dose 10-20 mg/kg, time 30 day"}, "[9]": {"system": "MDA-MB-231", "experiment": "Antitumor activity against human MDA-MB-231 cells xenografted in female nude BALB/c mouse model assessed as reduction in tumor volume at 20 mg/kg, ip administered every other day for 30 days (reference value: 1522.98 millimeter)", "format": "functional", "details": "time 30 day"}, "[10]": {"system": "MDA-MB-231", "experiment": "Effect on STAT3 expression in human MDA-MB-231 cells at 0.1 microM measured after 8 to 48 hrs by Western blot analysis", "format": "functional, cell-based", "details": "time 8-48 hrs"}, "[11]": {"system": "MDA-MB-231", "experiment": "Effect on ERK12 phosphorylation level in human MDA-MB-231 cells at 0.05 to 0.5 uM measured after 48 hrs by Western blot analysis", "format": "functional, cell-based", "details": "dose 0.05-0.5 µM"}, "[12]": {"system": "BT-549", "experiment": "Inhibition of colony formation in human BT-549 cells measured after 14 days by crystal violet staining based analysis", "format": "functional, cell-based", "details": "dose 0.1-0.5 µM, time 14.0 day"}, "[13]": {"target": "T1, Signal transducer and activator of transcription 3", "experiment": "Inhibition of STAT3 phosphorylation at Tyr705 residue at Tyr705 residue in human MDA-MB-231 cells measured after 8 to 48 hrs by Western blot analysis", "format": "cell-based", "details": "dose 0.1 µM, time 8-48 hrs"}, "[14]": {"system": "MDA-MB-231", "experiment": "Effect on STAT1 phosphorylation level in human MDA-MB-231 cells at 0.05 to 0.5 uM measured after 48 hrs by Western blot analysis", "format": "functional, cell-based", "details": "dose 0.05-0.5 µM"}, "[15]": {"system": "MDA-MB-231", "experiment": "Effect on Akt phosphorylation level in human MDA-MB-231 cells at 0.05 to 0.5 uM measured after 48 hrs by Western blot analysis", "format": "functional, cell-based", "details": "dose 0.05-0.5 µM"}, "[16]": {"system": "MDA-MB-231", "experiment": "Downregulation of Bcl-2 level in human MDA-MB-231 cells measured after 48 hrs by Western blot analysis", "format": "functional, cell-based", "details": "dose 0.05-0.5 µM"}, "[17]": {"system": "BT-549", "experiment": "Downregulation of Bcl-2 level in human BT-549 cells measured after 48 hrs by Western blot analysis", "format": "functional, cell-based", "details": "dose 0.05-0.5 µM"}, "[18]": {"system": "MDA-MB-231", "experiment": "Induction of apoptosis in human MDA-MB-231 cells assessed as late apoptotic at 0.5 uM incubated for 48 hrs by Annexin V and PI staining based flow cytometry analysis (reference value: 2.71%)", "format": "functional"}, "[19]": {"system": "MDA-MB-231", "experiment": "Downregulation of CD44 expression in human MDA-MB-231 cells by Western blot analysis", "format": "functional, cell-based"}, "[20]": {"system": "BT-549", "experiment": "Effect on STAT5 phosphorylation level in human BT-549 cells at 0.05 to 0.5 uM measured after 48 hrs by Western blot analysis", "format": "functional, cell-based", "details": "dose 0.05-0.5 µM"}, "[21]": {"species": "Homo sapiens", "experiment": "Inhibition of SRC phosphorylation (unknown origin) at […] residue at upto 10 uM"}, "[22]": {"target": "T1, Signal transducer and activator of transcription 3", "experiment": "Inhibition of STAT3 in human MDA-MB-231 cells assessed as downregulation of CCNB1 level", "format": "cell-based"}, "[23]": {"system": "BT-549", "experiment": "Effect on STAT3 expression in human BT-549 cells at 0.1 microM measured after 8 to 48 hrs by Western blot analysis", "format": "functional, cell-based", "details": "time 8-48 hrs"}, "[24]": {"target": "T1, Signal transducer and activator of transcription 3", "experiment": "Inhibition of STAT3 phosphorylation in human MDA-MB-231 cells assessed as downregulation of KRT10 expression level", "format": "cell-based"}, "[25]": {"target": "Epidermal growth factor receptor (Homo sapiens) (UniProt P00533)", "sequence (P00533 whole entry)": "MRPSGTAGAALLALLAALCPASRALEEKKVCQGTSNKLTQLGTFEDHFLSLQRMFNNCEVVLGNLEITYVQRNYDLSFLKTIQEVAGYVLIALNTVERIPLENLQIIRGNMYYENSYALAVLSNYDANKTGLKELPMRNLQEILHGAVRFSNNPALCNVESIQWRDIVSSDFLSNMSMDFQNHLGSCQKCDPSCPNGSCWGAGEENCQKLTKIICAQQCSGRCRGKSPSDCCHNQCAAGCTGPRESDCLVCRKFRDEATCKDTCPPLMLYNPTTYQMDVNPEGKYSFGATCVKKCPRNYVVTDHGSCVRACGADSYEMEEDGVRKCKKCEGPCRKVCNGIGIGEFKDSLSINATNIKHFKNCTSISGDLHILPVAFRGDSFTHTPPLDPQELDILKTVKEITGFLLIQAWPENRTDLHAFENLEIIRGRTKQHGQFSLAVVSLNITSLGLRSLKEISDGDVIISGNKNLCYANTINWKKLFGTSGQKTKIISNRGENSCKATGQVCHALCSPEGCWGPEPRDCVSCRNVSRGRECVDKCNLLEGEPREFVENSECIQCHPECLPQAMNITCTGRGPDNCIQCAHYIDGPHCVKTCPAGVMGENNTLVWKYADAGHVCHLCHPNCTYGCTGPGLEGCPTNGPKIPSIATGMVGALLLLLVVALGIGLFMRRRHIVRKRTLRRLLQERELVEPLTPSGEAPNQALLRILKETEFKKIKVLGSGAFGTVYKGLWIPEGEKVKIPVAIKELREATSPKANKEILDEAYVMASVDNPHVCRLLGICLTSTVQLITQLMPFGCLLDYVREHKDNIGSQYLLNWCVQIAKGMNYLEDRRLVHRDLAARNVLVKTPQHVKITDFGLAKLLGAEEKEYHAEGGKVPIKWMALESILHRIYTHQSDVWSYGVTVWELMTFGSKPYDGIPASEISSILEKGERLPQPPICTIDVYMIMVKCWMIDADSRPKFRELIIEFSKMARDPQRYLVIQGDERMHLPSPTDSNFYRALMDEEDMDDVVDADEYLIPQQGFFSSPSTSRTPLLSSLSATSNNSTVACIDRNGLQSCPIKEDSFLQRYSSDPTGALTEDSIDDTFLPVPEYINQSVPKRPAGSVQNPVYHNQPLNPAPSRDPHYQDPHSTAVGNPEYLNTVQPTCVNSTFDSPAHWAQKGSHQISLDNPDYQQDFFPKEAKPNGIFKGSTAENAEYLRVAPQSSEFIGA", "experiment": "Inhibition of EGFR (unknown origin) at upto 10 uM"}, "[26]": {"system": "MDA-MB-231", "experiment": "Effect on JAK1 phosphorylation level in human MDA-MB-231 cells at 0.05 to 0.5 uM measured after 48 hrs by Western blot analysis", "format": "functional, cell-based", "details": "dose 0.05-0.5 µM"}, "[27]": {"experiment": "Toxicity in female BALB/c nude mouse assessed as change in body weight at 10 to 20 mg/kg, iv measured for 30 days", "format": "organism-based", "details": "in vivo, 720 h, dose 10-20 mg/kg, time 30 day"}, "[28]": {"system": "MDA-MB-231", "experiment": "Downregulation of MMP2 expression level in human MDA-MB-231 cells by Western blot analysis", "format": "functional, cell-based"}, "[29]": {"target": "T1, Signal transducer and activator of transcription 3", "experiment": "Inhibition of STAT3 in human MDA-MB-231 cells assessed as upregulation of NDUFAB1 level", "format": "cell-based"}, "[30]": {"target": "Tyrosine-protein kinase JAK1 (Homo sapiens) (UniProt P23458)", "sequence (P23458 whole entry)": "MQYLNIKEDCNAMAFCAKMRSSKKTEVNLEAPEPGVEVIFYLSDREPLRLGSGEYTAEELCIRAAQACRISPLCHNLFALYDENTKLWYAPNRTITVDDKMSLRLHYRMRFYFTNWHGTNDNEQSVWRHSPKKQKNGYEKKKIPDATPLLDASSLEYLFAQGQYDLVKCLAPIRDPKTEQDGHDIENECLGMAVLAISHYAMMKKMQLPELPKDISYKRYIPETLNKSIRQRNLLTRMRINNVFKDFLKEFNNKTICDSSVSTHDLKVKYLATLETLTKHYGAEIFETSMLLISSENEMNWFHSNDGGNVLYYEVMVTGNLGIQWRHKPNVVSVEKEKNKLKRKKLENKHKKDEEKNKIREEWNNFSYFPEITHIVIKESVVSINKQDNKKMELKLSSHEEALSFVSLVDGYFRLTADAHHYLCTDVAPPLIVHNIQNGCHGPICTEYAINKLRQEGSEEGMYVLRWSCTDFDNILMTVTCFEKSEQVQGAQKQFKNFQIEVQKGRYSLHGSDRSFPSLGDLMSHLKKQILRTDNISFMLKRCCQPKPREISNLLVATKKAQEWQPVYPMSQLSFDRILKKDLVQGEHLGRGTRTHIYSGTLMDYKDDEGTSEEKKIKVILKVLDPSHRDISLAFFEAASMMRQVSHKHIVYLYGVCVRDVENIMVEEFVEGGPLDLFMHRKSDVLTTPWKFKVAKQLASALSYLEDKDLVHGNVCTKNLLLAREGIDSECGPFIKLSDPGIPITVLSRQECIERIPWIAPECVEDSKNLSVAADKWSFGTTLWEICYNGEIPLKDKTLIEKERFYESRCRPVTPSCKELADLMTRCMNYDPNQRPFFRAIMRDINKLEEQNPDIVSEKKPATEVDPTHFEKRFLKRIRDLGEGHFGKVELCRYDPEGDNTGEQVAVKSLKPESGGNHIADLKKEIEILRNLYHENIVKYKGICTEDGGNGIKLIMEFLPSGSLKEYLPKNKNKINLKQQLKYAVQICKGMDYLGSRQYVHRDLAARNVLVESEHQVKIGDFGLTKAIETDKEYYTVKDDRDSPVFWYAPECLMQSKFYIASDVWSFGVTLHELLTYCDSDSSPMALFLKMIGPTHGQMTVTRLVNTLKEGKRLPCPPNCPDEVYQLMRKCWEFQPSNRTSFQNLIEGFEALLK", "experiment": "Inhibition of JAK1 (unknown origin) at upto 10 uM"}, "[31]": {"target": "T1, Signal transducer and activator of transcription 3", "experiment": "Inhibition of STAT3 phosphorylation in human MDA-MB-231 cells assessed as upregulation of HMOX1 expression level", "format": "cell-based"}, "[32]": {"system": "BT-549", "experiment": "Inhibition of colony formation in human BT-549 cells at low concentration measured after 14 days by crystal violet staining based analysis", "format": "functional, cell-based", "details": "time 14.0 day"}, "[33]": {"system": "MDA-MB-231", "experiment": "Antitumor activity against human MDA-MB-231 cells xenografted in female nude BALB/c mouse model assessed as tumor growth inhibition at 10 mg/kg, ip administered every other day for 30 days relative to control", "format": "functional", "details": "MDA-MB-231, 720 h, time 30 day, read-out: TGI"}, "[34]": {"system": "BT-549", "experiment": "Effect on STAT1 phosphorylation level in human BT-549 cells at 0.05 to 0.5 uM measured after 48 hrs by Western blot analysis", "format": "functional, cell-based", "details": "dose 0.05-0.5 µM"}, "[35]": {"system": "BT-549", "experiment": "Effect on ERK1/2 phosphorylation level in human BT-549 cells at 0.05 to 0.5 uM measured after 48 hrs by Western blot analysis", "format": "functional, cell-based", "details": "dose 0.05-0.5 µM"}, "[36]": {"system": "MDA-MB-231", "experiment": "Inhibition of cell migration in human MDA-MB-231 cells assessed as reduction in wound closure proportion at 0.05 to 0.5 uM incubated for 24 hrs by inverted microscopic analysis", "format": "functional, cell-based", "details": "dose 0.05-0.5 µM"}, "[37]": {"experiment": "Toxicity in female BALB/c nude mouse assessed as effect on lung at 10 to 20 mg/kg, iv measured after 30 days by H and E staining based analysis", "format": "organism-based", "details": "in vivo, 720 h, dose 10-20 mg/kg, time 30 day"}}, "note": "Activity calls are given as the source filed them. The rule behind the calls is not given here."}
{"smiles": "COc1cccc(C(=O)Nc2sc3c(c2C#N)CCN(C(=O)Nc2ccccc2OC)C3)c1", "values": [{"measurement": "inhibition", "setting": "[1]", "result": "Active; Compound Showed Little Inhibitory Effect"}, {"measurement": "Activity", "setting": "[2]", "result": "Non-toxic"}, {"measurement": "Activity", "setting": "[3]", "result": "Dose-dependent-effect"}, {"measurement": "inhibition", "setting": "[4]", "result": "Active"}, {"measurement": "Activity", "setting": "[5]", "result": "Dose-dependent-effect"}, {"measurement": "inhibition", "setting": "[6]", "result": "Active"}, {"measurement": "Activity", "setting": "[7]", "result": "Dose-dependent-effect"}, {"measurement": "Activity", "setting": "[8]", "result": "Non-toxic"}, {"measurement": "tumor volume", "setting": "[9]", "result": 656, "unit": "mm³"}, {"measurement": "Activity", "setting": "[10]", "result": "Active; Compound Showed Little Impact On Stat3 Expression"}, {"measurement": "Activity", "setting": "[11]", "result": "inactive"}, {"measurement": "inhibition", "setting": "[12]", "result": "Dose-dependent-effect"}, {"measurement": "inhibition", "setting": "[13]", "result": "Dose-dependent-effect"}, {"measurement": "Activity", "setting": "[14]", "result": "inactive"}, {"measurement": "Activity", "setting": "[15]", "result": "inactive"}, {"measurement": "Activity", "setting": "[16]", "result": "Dose-dependent-effect"}, {"measurement": "Activity", "setting": "[17]", "result": "Dose-dependent-effect"}, {"measurement": "Activity", "setting": "[18]", "result": 19.18, "unit": "%"}, {"measurement": "Activity", "setting": "[19]", "result": "Active"}, {"measurement": "Activity", "setting": "[20]", "result": "inactive"}, {"measurement": "inhibition", "setting": "[21]", "result": "Active; Compound Showed Little Inhibitory Effect"}, {"measurement": "inhibition", "setting": "[22]", "result": "Active"}, {"measurement": "Activity", "setting": "[23]", "result": "Active; Compound Showed Little Impact On Stat3 Expression"}, {"measurement": "inhibition", "setting": "[24]", "result": "Active"}, {"measurement": "inhibition", "setting": "[25]", "result": "Active; Compound Showed Little Inhibitory Effect"}, {"measurement": "Activity", "setting": "[26]", "result": "inactive"}, {"measurement": "Activity", "setting": "[27]", "result": "Toxic"}, {"measurement": "Activity", "setting": "[28]", "result": "Active"}, {"measurement": "inhibition", "setting": "[29]", "result": "Active"}, {"measurement": "inhibition", "setting": "[30]", "result": "Active; Compound Showed Little Inhibitory Effect"}, {"measurement": "inhibition", "setting": "[31]", "result": "Active"}, {"measurement": "inhibition", "setting": "[32]", "result": "Active; Compound Showed Robust Inhibition Compared To Positive Control"}, {"measurement": "inhibition in vivo at 10 mg/kg", "setting": "[33]", "result": 51.5, "unit": "%"}, {"measurement": "Activity", "setting": "[34]", "result": "inactive"}, {"measurement": "Activity", "setting": "[35]", "result": "inactive"}, {"measurement": "inhibition", "setting": "[36]", "result": "Active"}, {"measurement": "Activity", "setting": "[37]", "result": "Non-toxic"}]}
